Laboratory results: US20220402883A1, “COMPOUNDS AND METHODS FOR MODULATING RNA FUNCTION” (Arrakis Therapeutics, Inc., priority 2016, published 2022)

What was measured:
[1] = test system: RNA3WJ_0.0.0_5IB_3FAM (3WJ_0.0.0_5IB_3FAM RNA construct); test: Thermal shift binding assay
Summary of the method: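 A 3WJ RNA construct, 5′-Iowa Black/3′-FAM labelled and annealed (90° C. for 5 min, slow cooling), was tested at 1 μM with 8 μM compound, 1% DMSO, in 10 mM CacoK pH 7.2, 30 mM NaCl. FAM fluorescence (480/510 nm) monitored from 41 to 91° C. at 0.1° C./sec. Compound effect on 3WJ stability taken from Tm shift of melting curves.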

RNA3WJ_3.0.0_5IB_3FAM = test: Thermal shift binding assay; conditions: 1 μM RNA, 8 μM compound, 10 mM CacoK pH 7.2, 30 mM NaCl
RNA3WJ_2.1.0_5IB_3FAM = test: Thermal shift binding assay; conditions: 1 μM RNA, 8 μM compound, 10 mM CacoK pH 7.2, 30 mM NaCl
Text: (§1) Purpose: Test binding of compounds for RNA three way junction (for example, a construct of 38 nt). Thermal shift assay based on established fluorescence quenching assay utilizing FAM as fluorescence tag and Iowa Black as quencher. Tags were attached at the 3′ and 5′ end, respectively. Stable formation of 3WJ upon compound binding would lead to quenching of the FAM fluorescence due to close proximity of the Iowa Black tag. Thermal unfolding leads to increase of fluorescence emission. Assay readout: FAM (465-510 nm) Thermal Shift.
(§2) Assay sample buffer used: 10 mM CacoK pH 7.2, 30 mM NaCl. Buffer preparation in Dnase/Rnase Free distilled water (Gibco Life Technologies).
(§3) Dilute the RNA 1:10 (final 10 μM) in Assay Buffer.
(§4) Heat up the diluted RNA up to 90° C. for 5 min (sealed Eppendorf Tube).
(§5) Cool down the RNA probe slowly to RT.
(§6) Dilute the compounds to 800 μM in DMSO (Assay: 8 μM).
(§7) Final concentrations in the sample: 1 μM RNA, 8 μM compound, 1% DMSO
(§8) Pipet 20 μL Sample Solution into Roche, Light Cycler480 Multiwell Plate96, white, REF 04729692001.
(§9) Measure the 96 plate with the LightCycler480 (Channel: 480/510 nm; Temperature: 41-91° C.).
(§10) Analyse measurement-data with the MeltingCurveGenotyping Mode.
(§11) Settings: Acquisition mode: continuous; Ramp rate: 0.1° C./sec; Acquisition: 6° C.
(§12) Curves are fitted with raw and normalized data.
(§13) Melting curves analysis show melting temperature (Tm) of ˜51° C. Range of RNA concentrations was tested and assay window was determined (conc. range of 0.5-1 μM yields best results). The choice of buffer also affected the Tm. RNA constructs were tested under different buffer conditions (especially in presence of salt) in the thermal shift assay. […] CacoK with 30 mM salt at 1 μM RNA conc. was used to assess compound effects on 3WJ stability. […] These conditions were used for screening test compounds.

RNA3WJ_1.1.1_5IB_3FAM = test: Thermal shift binding assay; conditions: 1 μM RNA, 8 μM compound, 10 mM CacoK pH 7.2, 30 mM NaCl
Text: as §1, §2, §3, §4, §5, §6, §7, §8, §9, §10, §11, §12, §13

RNA3WJ_1.1.0_5IB_3FAM = test: Thermal shift binding assay; conditions: 1 μM RNA, 8 μM compound, 10 mM CacoK pH 7.2, 30 mM NaCl
Text: as §1, §2, §3, §4, §5, §6, §7, §8, §9, §10, §11, §12, §13

RNA3WJ_2.0.0_5IB_3FAM = test: Thermal shift binding assay; conditions: 1 μM RNA, 8 μM compound, 10 mM CacoK pH 7.2, 30 mM NaCl
Text: as §1, §2, §3, §4, §5, §6, §7, §8, §9, §10, §11, §12, §13

[2] = test system: RNA3WJ_0.0.0_5B_3FAM (3WJ RNA); test: Ligand observed NMR binding assay (Watergate, WaterLOGSY, STD); conditions: 10 μM RNA, +/− 200 Ark000013
Experimental: Purpose: Test direct binding of compounds for RNA three way junction (3WJ). This ligand observed NMR assay is used to test direct binding of compounds to an RNA target, for example a 38 nt synthetic RNA 3WJ and others as described below. Ligand observed assay was used for hit validation studies of single compounds. Established experiments were eventually used to perform group epitope mapping, described below.
Sample buffer: 10 mM Cacodylate, pH 7.1; 0.68 g [MW: 137.99 g/mol]; fill up to 500 ml with Millipore H2O.
Compound Stocks: Tool compounds provided as dry powder were prepared as 50 mM stock solution in 100% d6-DMSO. Test compounds provided as dry powder were prepared as 50 mM stock solution in 100% d6-DMSO. Stock solutions of 50 mM concentration in d6-DMSO were stored at 4° C.
NMR spectrometer: Bruker AVANCE600 spectrometer operating at 600.0 MHz for ^1H. 5-mm z-gradient TXI Cryoprobe.
Dried RNA pellet is solubilized in sample buffer 10 mM Cacodylate pH 7.1. […]
Spectra were analyzed for direct binding signals of the compounds. […]
ARK0000013 was also tested in the NMR binding assay. Test Sample: 10 μM RNA3WJ_0.0.0_5B_3FAM+/−200 Ark000013. ^1H 1D Watergate & WaterLOGSY spectra recorded of Ark000013 were used as a reference (Note: aromatic signals observed between 7.4-7.9 ppm and due to symmetry of the center triptycene scaffold all 9 protons are magnetically equivalent).

[3] = 1 μM RNA, 8 μM compound, 10 mM CacoK pH 7.2, 30 mM NaCl

Q: For `CN(CCCN)CCCNC(=O)c1ccc2c(c1)C1c3cc(C(=O)NCCCN(C)CCCN)ccc3C2c2ccc(C(=O)NCCCN(C)CCCN)cc21` [Ark000013, N^2,N^7,N^15-tris(3-((3-aminopropyl)(methyl)amino)propyl)-9,10-dihydro-9,10-[1,2]benzenoanthracene-2,7,15-tricarboxamide], which “Melting temp + cmpd” value [1, 3] is on record?
A: The value was 84.1 °C.

Q: What about the “Temp. Shift” value [1, 3] of the same compound?
A: The value was 24.2 °C.

Q: And the “Melt. Temp. with cmpd” value ([1]; RNA sequence 3WJ_0.0.0_5IB_FAM, melting temperature in presence of compound)?
A: The value was 84.1 °C.

Q: And the “Shift melt. Temp.” value ([1]; RNA sequence 3WJ_0.0.0_5IB_FAM, with cmpd minus without cmpd)?
A: The value was “+24.2 °C”.

Q: And the “Melting temp + cmpd” value (RNA3WJ_3.0.0_5IB_3FAM)?
A: The value was 83.7 °C.

Q: What about the “Temp. Shift” value (RNA3WJ_3.0.0_5IB_3FAM) of the same compound?
A: Its value is 21.7 °C.

Q: And the “Melting temp + cmpd” value (RNA3WJ_2.1.0_5IB_3FAM)?
A: Its value is 45.7 °C.

Q: What about the “Temp. Shift” value (RNA3WJ_2.1.0_5IB_3FAM) of the same compound?
A: The value was 3.8 °C.

Q: What about the “Melting temp + cmpd” value (RNA3WJ_1.1.1_5IB_3FAM) of the same compound?
A: Its value is 82.9 °C.

Q: What about the “Temp. Shift” value (RNA3WJ_1.1.1_5IB_3FAM) of the same compound?
A: Its value is 20.7 °C.

Q: What about the “Melting temp + cmpd” value (RNA3WJ_1.1.0_5IB_3FAM) of the same compound?
A: The value was 85.5 °C.

Q: And the “Temp. Shift” value (RNA3WJ_1.1.0_5IB_3FAM)?
A: Its value is 22.2 °C.

Q: And the “Melting temp + cmpd” value (RNA3WJ_2.0.0_5IB_3FAM)?
A: Its value is 84.3 °C.

Q: And the “Temp. Shift” value (RNA3WJ_2.0.0_5IB_3FAM)?
A: Its value is 22.1 °C.

Q: And the STD signals [2]?
A: Its STD signals is “small signals”.

Q: What about the “WaterLOGSY signals in the presence of RNA” value [2] of the same compound?
A: Its value is “clear reduction of negative sign signals”.
